Measurements: patent US20160052898A1, “NOVEL COMPOUNDS” (BAYER PHARMA AKTIENGESELLSCHAFT, priority 2013, published 2016)
Where a name gives a salt, the structure may show the parent alone.

Assays:
Format in all cases: cell-based
[1] = system: HEK293 FOP control reporter cell line; assay: HEK293 FOP control vector reporter assay; details: Homo sapiens; HEK293 FOP control reporter cells, EC50 concentration of recombinant Wnt-3a, 16 hours incubation; read-out: HEK FOP IC50
Procedure: (§1) In order to determine the inhibitory activity of compounds for the WT Wnt signaling pathway, the Super TopFlash vector respectively FOP vector were cotransfected with pcDNA3 into HEK293 and stable transfected HEK293 cells were isolated by antibiotic selection. […] The recombinant human Wnt-3a was thereby used between 2500 and 5 ng/ml in two-fold dilution steps. […] Measurement of luciferase expression was done as described for the constitutive active Wnt assay.
In a parallel approach, HEK293 cells were cotransfected with the FOP control vector and pcDNA3. The FOP vector is identical to the TOP construct, but it contains instead of functional TCF elements a randomized, non-functional sequence. For this transfection a stable transfected cell line was generated as well, based on selection with Geneticin (1 mg/ml).
(§2) In preparation of the assay, the two cell lines were plated 24 hours before beginning the test at 10000 cells per well in a 384 micro titre plate (MTP) in […] growth medium. […] The recombinant human Wnt-3a was thereby applied between 2500 and 5 ng/ml in two-fold dilution steps. Selective inhibitory activity for small molecules on the wildtype Wnt pathway was determined after parallel incubation of both (TOP and FOP) HEK293 reporter cell lines with a compound dilution series from 50 μM to 15 nM in steps of 3.16-fold dilutions in CAFTY buffer (130 mM NaCl, 5 mM KCl, 20 mM HEPES, 1 mM MgCl2, 5 mM NaHCO3, pH 7.4) containing 2 mM Ca^2+ and 0.01% BSA.
(§3) The compounds were thereby serially prediluted in 100% DMSO and thereafter 50 fold into the CAFTY compound dilution buffer (described above).

[2] = system: HCT116 FOP control reporter cell line; assay: HCT116 FOP control vector reporter assay (non-functional TCF elements); details: Homo sapiens, HCT-116, 36 h, HCT116 FOP control reporter cells, luciferase expression, 36 hours incubation, 50 μM to 15 nM; read-out: HCT116 FOPFlash IC50
Method in brief: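 Stable HCT116 line carrying the non-functional FOP luciferase construct, 10000 cells/well plated 24 hrs before. Compounds 50 μM to 15 nM (3.16-fold steps) in CAFTY buffer pH 7.4 with 2 mM Ca2+, 36 hours at 37° C; luciferase luminescence read.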

[3] = system: constitutive active colorectal cancer cell (CRC) Wnt pathway; assay: HCT116 Super TopFlash cellular reporter assay (constitutive active Wnt pathway); details: HCT116 TOP reporter cells, luciferase expression, 36 hours incubation, 50 μM to 15 nM
Method in brief: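 HCT116 cells (β-catenin ΔS45) stably carrying Super TopFlash, with a parallel FOP-control line, were plated 24 h ahead. They were exposed 36 h at 37 °C, 5% CO2 to compound from a 50 μM–15 nM, 3.16-fold pre-dilution series in CAFTY buffer (pH 7.4, 2 mM Ca2+, 0.01% BSA). Wnt signalling was read as luciferase luminescence.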

[4] = system: wildtype Wnt pathway; assay: HEK293 Super TopFlash cellular reporter assay, Wnt-3a stimulated (wildtype Wnt pathway); details: Homo sapiens; HEK293 TOP reporter cells, EC50 concentration of recombinant Wnt-3a, 16 hours incubation; read-out: HEK TOP OncoFlash IC50
Procedure: as §1
In order to discover and characterize small molecules which inhibit the wildtype Wnt pathway, a cellular reporter assay was employed. The corresponding assay cell was generated by transfection of the mammalian cell line HEK293 (ATCC, #CRL-1573) with the Super TopFlash vector (Morin, Science 275, 1997, 1787-1790; Molenaar et al., Cell 86 (3), 1996, 391-399). The HEK293 cell line is cultivated at 37° C. and 5% CO2 in DMEM (Life Technologies, #41965-039), supplemented with 2 mM glutamine, 20 mM HEPES, 1.4 mM pyruvate, 0.15% Na-bicarbonate and 10% foetal bovine serum (GIBCO, #10270). Stable transfectants were generated by selection with 300 μg/ml Hygromycin.
as §2, §3

Compound | IC50 [1] | IC50 [2] | IC50 ([3]; Homo sapiens, HCT-116, 36 h) | IC50 [4] | IC50 [3]
COc1ccc(NC(=O)c2ccc(-c3cccc(C)c3)cc2)cc1NC(=O)CN1CCOCC1 [Example 71, N-{4-methoxy-3-[(morpholin-4-ylacetyl)amino]phenyl}-3′-methylbiphenyl-4-carboxamide] | 25 µM | ≥ 50 µM | 2.25 µM | 2.5 µM | 
O=C(Nc1ccc(-c2ccccc2)cc1)c1ccc(C(F)(F)F)c(NC(=O)C2(N3CCOCC3)CC2)c1 [Example 98, N-(biphenyl-4-yl)-3-({[1-(morpholin-4-yl)cyclopropyl]carbonyl}amino)-4-(trifluoromethyl)benzamide] | ≥ 50 µM | ≥ 50 µM | 0.00724 µM | 0.086 µM | 
COCCCNC(=O)c1ccc(C(=O)Nc2ccc(-c3ccccc3)cc2)cc1NC(=O)CN1CCOCC1 [Example 108, N^4-(biphenyl-4-yl)-N^1-(3-methoxypropyl)-2-[(morpholin-4-ylacetyl)amino]terephthalamide] | ≥ 50 µM | 43.5 µM | 0.0445 µM | 0.0156 µM | 
N#Cc1ccc(C(=O)Nc2ccc(-c3ccccc3)cc2)cc1NC(=O)CN1CCOCC1 [Example 18, N-(biphenyl-4-yl)-4-cyano-3-[(morpholin-4-ylacetyl)amino]benzamide] | 19 µM | ≥ 50 µM | 0.0587 µM | 0.69 µM | 
COCCNC(=O)c1ccc(C(=O)Nc2ccc(-c3ccccc3)cc2)cc1NC(=O)CN1CCOCC1 [Example 106, N^4-(biphenyl-4-yl)-N^1-(2-methoxyethyl)-2-[(morpholin-4-ylacetyl)amino]terephthalamide] | ≥ 50 µM | ≥ 50 µM | 0.0172 µM | 0.076 µM | 
COc1ccc(NC(=O)c2ccc(-c3ccccc3)cc2)cc1NC(=O)CN1C[C@@H]2C[C@H]1CO2 [Example 33, N-(4-methoxy-3-{[(1S,4S)-2-oxa-5-azabicyclo[2.2.1]hept-5-ylacetyl]amino}phenyl)biphenyl-4-carboxamide] | 9 µM | ≥ 50 µM | 0.435 µM | 0.4 µM | 
CC(C(=O)Nc1cc(C(=O)Nc2ccc(-c3ccccc3)cc2)ccc1C(F)(F)F)N1CCOCC1 (stereo not drawn) [Example 14, N-(biphenyl-4-yl)-3-{[2-(morpholin-4-yl)propanoyl]amino}-4-(trifluoromethyl)benzamide] | 7 µM | ≥ 50 µM | 0.027 µM | 0.24 µM | 
O=C(CN1CCOCC1)Nc1cc(C(=O)Nc2ccc(-c3ccccc3)cc2)ccc1Br [Example 13, N-(biphenyl-4-yl)-4-bromo-3-[(morpholin-4-ylacetyl)amino]benzamide] | 12 µM | ≥ 50 µM | 0.091 µM | 0.5 µM | 
COc1ccc(NC(=O)c2ccc(-c3ccccc3)cc2)cc1NC(=O)CN1CCC[C@H](O)C1 [Example 40, N-[3-({[(3S)-3-hydroxypiperidin-1-yl]acetyl}amino)-4-methoxyphenyl]biphenyl-4-carboxamide] | 12 µM | ≥ 50 µM | 2.3 µM | 0.046 µM | 
COc1ccc(C(=O)Nc2ccc(-c3ccccc3)cc2)cc1NC(=O)Cn1cccn1 [Example 2, N-(biphenyl-4-yl)-4-methoxy-3-[(1H-pyrazol-1-ylacetyl)amino]benzamide] | 50 µM | ≥ 50 µM | 3.2 µM | 1.48 µM | 
COc1ccc(C(=O)Nc2ccc(-c3ccccc3)cc2)cc1NC(=O)C1(N2CCN(C)CC2)CC1 [Example 100, N-(biphenyl-4-yl)-4-methoxy-3-({[1-(4-methylpiperazin-1-yl)cyclopropyl]carbonyl}amino)benzamide hydrochloride (1:1)] | 19 µM | 20.8 µM |  | 0.09 µM | 0.0248 µM
O=C(CN1CCOCC1)Nc1cc(NC(=O)c2ccc(-c3cccc(F)c3)cc2)ccc1OC(F)(F)F [Example 74, 3′-fluoro-N-{3-[(morpholin-4-ylacetyl)amino]-4-(trifluoromethoxy)phenyl}biphenyl-4-carboxamide] | 8.3 µM | ≥ 50 µM | 0.047 µM | 0.14 µM | 
CS(=O)(=O)Cc1ccc(C(=O)Nc2ccc(-c3ccccc3)cc2)cc1NC(=O)CN1CCOCC1 [Example 124, N-(biphenyl-4-yl)-4-[(methylsulfonyl)methyl]-3-[(morpholin-4-ylacetyl)amino]benzamide] | 11 µM | ≥ 50 µM | 0.034 µM | 0.11 µM | 
CCNC(=O)c1ccc(C(=O)Nc2ccc(-c3ccccc3)cc2)cc1NC(=O)CN1CCOCC1 [Example 102, N^4-(biphenyl-4-yl)-N^1-ethyl-2-[(morpholin-4-ylacetyl)amino]terephthalamide] | 5.8 µM | 28.9 µM | 0.0459 µM | 0.041 µM | 
COc1cccc(-c2ccc(C(=O)Nc3ccc(OC)c(NC(=O)CN4CCOCC4)c3)cc2)c1 [Example 80, 3′-methoxy-N-{4-methoxy-3-[(morpholin-4-ylacetyl)amino]phenyl}biphenyl-4-carboxamide] | ≥ 50 µM | ≥ 50 µM | 3.3 µM | 3.8 µM | 
COCc1ccc(C(=O)Nc2ccc(-c3ccccc3)cc2)cc1NC(=O)C1(N2CCOCC2)CC1 [Example 95, N-(biphenyl-4-yl)-4-(methoxymethyl)-3-({[1-(morpholin-4-yl)cyclopropyl]carbonyl}amino)benzamide] | ≥ 50 µM | ≥ 50 µM | 0.00458 µM | 0.016 µM | 
C[C@H](C(=O)Nc1cc(C(=O)Nc2ccc(-c3ccccc3)cc2)ccc1C(F)(F)F)N1CCOCC1 [Example 16, N-(biphenyl-4-yl)-3-{[(2R)-2-(morpholin-4-yl)propanoyl]amino}-4-(trifluoromethyl)benzamide] | 7.9 µM | ≥ 50 µM | 0.0179 µM | 0.026 µM | 
CN1CCN(C2(C(=O)Nc3cc(C(=O)Nc4ccc(-c5ccccc5)cc4)ccc3OC3CC3)CC2)CC1 [Example 114, N-(biphenyl-4-yl)-4-(cyclopropyloxy)-3-({[1-(4-methylpiperazin-1-yl)cyclopropyl]carbonyl}amino)benzamide] | ≥ 50 µM | 21 µM | 0.0158 µM | 0.036 µM | 
COc1ccc(C(=O)Nc2ccc(-c3ccccc3)cc2)cc1NC(=O)C1(N2CCOCC2)CC1 [Example 101, N-(biphenyl-4-yl)-4-methoxy-3-({[1-(morpholin-4-yl)cyclopropyl]carbonyl}amino)benzamide] | 17 µM | ≥ 50 µM | 0.00521 µM | 0.011 µM | 
COc1ccc(NC(=O)c2ccc(-c3ccc(N)cc3)cc2)cc1NC(=O)CN1CCOCC1 [Example 83, 4′-amino-N-{4-methoxy-3-[(morpholin-4-ylacetyl)amino]phenyl}biphenyl-4-carboxamide] | ≥ 50 µM | ≥ 50 µM | 0.319 µM | 0.76 µM | 
COc1ccc(C(=O)Nc2ccc(-c3ccccc3)cc2)cc1NC(=O)CN1CC2CCC(C1)O2 [Example 8, N-(biphenyl-4-yl)-4-methoxy-3-[(8-oxa-3-azabicyclo[3.2.1]oct-3-ylacetyl)amino]benzamide] | ≥ 50 µM | ≥ 50 µM | 0.07 µM | 0.27 µM | 
